Literature values in Sander's compilation of Henry's law constants.
“And” between values parts separate entries of the source, which are not always exact repeats. Equal values may be shown once.

Experiment: Henry solubility constant Hcp at 298.15 K (mol/(m3 Pa))
Details: cited value
[1] = reference: Burkholder et al. (2015)
[2] = reference: Burkholder et al. (2019)
[3] = reference: Mackay et al. (1992b)
[4] = reference: Barcelo and Hennion (1997)
[5] = reference: Sander et al. (2011)
[6] = reference: Sander et al. (2006)
[7] = reference: Fogg and Sangster (2003)

## CN(Cl)Cl [N,N-dichloromethylamine]
[1]
  Henry solubility constant Hcp: 0.0033
[2]
  Henry solubility constant Hcp: 0.0033

## CCCCCC(C)=O [2-heptanone]
reference: Brockbank (2013)
  Henry solubility constant Hcp: 0.068

## c1ccc(Cc2ccccc2)cc1 [diphenylmethane]
[3]
  Henry solubility constant Hcp: 1

## CN(C)C [trimethylamine]
[1]
  Henry solubility constant Hcp: 0.099
[2]
  Henry solubility constant Hcp: 0.099

## CCCCC(C)CC (stereo not given) [3-methylheptane]
reference: Brockbank (2013)
  Henry solubility constant Hcp: 2.6e-06

## CCCOC(=O)CCC [propyl butanoate]
reference: Brockbank (2013)
  Henry solubility constant Hcp: 0.018

## O=C(F)Cl [carbonic chloride fluoride]
reference: George et al. (1993)
  Henry solubility constant Hcp: 0.099

## ClC1C(Cl)C(Cl)C(Cl)C(Cl)C1Cl (stereo not drawn) [α-1,2,3,4,5,6-hexachlorocyclohexane]
reference: Xiao et al. (2004)
  Henry solubility constant Hcp: 1.5 and 1.4

## C=CC(C)=O [3-buten-2-one]
[1]
  Henry solubility constant Hcp: 0.4
[2]
  Henry solubility constant Hcp: 0.4

## CC(C)C(C)O (stereo not given) [3-methyl-2-butanol]
reference: Brockbank (2013)
  Henry solubility constant Hcp: 0.51

## CCC(C)CC [3-methylpentane]
reference: Brockbank (2013)
  Henry solubility constant Hcp: 5.9e-06

## c1ccc2c(c1)oc1ccccc12 [dibenzofuran]
reference: Brockbank (2013)
  Henry solubility constant Hcp: 0.074
[3]
  Henry solubility constant Hcp: 0.091

## CC(CCl)OC(C)CCl (stereo not given) [bis-(2-chloroisopropyl) ether]
reference: Goldstein (1982)
  Henry solubility constant Hcp: 0.065 and 0.064

## CCCCC [pentane]
reference: Brockbank (2013)
  Henry solubility constant Hcp: 7.2e-06

## OCc1ccccc1 [(hydroxymethyl)-benzene]
reference: Howard (1993)
  Henry solubility constant Hcp: 25

## CCCCN(CC)C(=O)SCCC [pebulate]
[4]
  Henry solubility constant Hcp: 0.00084

## CCCCCCC [heptane]
reference: Brockbank (2013)
  Henry solubility constant Hcp: 4.4e-06

## CCBr [bromoethane]
reference: Brockbank (2013)
  Henry solubility constant Hcp: 0.0013
[2]
  Henry solubility constant Hcp: 0.0013

## ClCCCCCCl [1,5-dichloropentane]
reference: Brockbank (2013)
  Henry solubility constant Hcp: 0.01

## CC(C)C(C)C(C)C [2,3,4-trimethylpentane]
reference: Brockbank (2013)
  Henry solubility constant Hcp: 3.3e-06

## FOF [difluorine monoxide]
reference: Schäfer and Lax (1962)
  Henry solubility constant Hcp: 2.9e-05

## CCOC=O [ethyl methanoate]
reference: Brockbank (2013)
  Henry solubility constant Hcp: 0.033
[1]
  Henry solubility constant Hcp: 0.034
[2]
  Henry solubility constant Hcp: 0.034
[5]
  Henry solubility constant Hcp: 0.034

## CC(C)(C)C(O)(CCc1ccc(Cl)cc1)Cn1cncn1 (stereo not given) [tebuconazole]
[4]
  Henry solubility constant Hcp: 1100

## ClCc1ccccc1 [(chloromethyl)-benzene]
reference: Brockbank (2013)
  Henry solubility constant Hcp: 0.022

## CCCCCC#N [hexanenitrile]
reference: Plyasunov et al. (2006)
  Henry solubility constant Hcp: 0.12

## CC(C)(C)CO [2,2-dimethyl-1-propanol]
reference: Brockbank (2013)
  Henry solubility constant Hcp: 0.3

## CS [methanethiol]
[1]
  Henry solubility constant Hcp: 0.0038
[2]
  Henry solubility constant Hcp: 0.0038
reference: Goldstein (1982)
  Henry solubility constant Hcp: 0.0026
[6]
  Henry solubility constant Hcp: 0.0038
[5]
  Henry solubility constant Hcp: 0.0038

## CCCCCCCC(C)O (stereo not given) [2-nonanol]
reference: Brockbank (2013)
  Henry solubility constant Hcp: 0.21

## CC(C)CC(=O)CC(C)C [2,6-dimethyl-4-heptanone]
reference: Brockbank (2013)
  Henry solubility constant Hcp: 0.013

## c1ccccc1 [benzene]
reference: Brockbank (2013)
  Henry solubility constant Hcp: 0.0018
reference: Goldstein (1982)
  Henry solubility constant Hcp: 0.0018

## CCCCOC(=O)CCC [butyl butanoate]
reference: Brockbank (2013)
  Henry solubility constant Hcp: 0.017

## Oc1ccccc1Cl [2-hydroxychlorobenzene]
reference: Goldstein (1982)
  Henry solubility constant Hcp: 1.2
reference: Howard (1989)
  Henry solubility constant Hcp: 18

## [C-]#[O+] [carbon monoxide]
[1]
  Henry solubility constant Hcp: 9.7e-06
[2]
  Henry solubility constant Hcp: 9.7e-06
[6]
  Henry solubility constant Hcp: 9.7e-06
[5]
  Henry solubility constant Hcp: 9.7e-06

## CCCCCCCCc1ccccc1 [octylbenzene]
reference: Brockbank (2013)
  Henry solubility constant Hcp: 0.00018

## C#CCCCC [1-hexyne]
reference: Brockbank (2013)
  Henry solubility constant Hcp: 0.00026

## CCCC(C)C [2-methylpentane]
reference: Brockbank (2013)
  Henry solubility constant Hcp: 6.4e-06

## COC(=O)c1c(Cl)c(Cl)c(C(=O)OC)c(Cl)c1Cl [dacthal]
reference: Muir et al. (2004)
  Henry solubility constant Hcp: 4.4

## CC(C)(C)c1cc([N+](=O)[O-])cc([N+](=O)[O-])c1O [dinoterb]
[4]
  Henry solubility constant Hcp: 1.7

## Cc1cccc(C)c1C [1,2,3-trimethylbenzene]
reference: Brockbank (2013)
  Henry solubility constant Hcp: 0.0024
[7]
  Henry solubility constant Hcp: 0.0027

## ClC1C(Cl)C(Cl)C(Cl)C(Cl)C1Cl (stereo not given) [γ-1,2,3,4,5,6-hexachlorocyclohexane]
reference: McCarty (1980)
  Henry solubility constant Hcp: 31
reference: Xiao et al. (2004)
  Henry solubility constant Hcp: 3.7 and 3.3

## c1ccc2c(c1)ccc1c3ccccc3ccc21 [chrysene]
reference: Brockbank (2013)
  Henry solubility constant Hcp: 15
reference: Petrasek et al. (1983)
  Henry solubility constant Hcp: 6.6

## CCCCCCCBr [1-bromoheptane]
reference: Brockbank (2013)
  Henry solubility constant Hcp: 0.00022

## CCOP(=S)(OCC)Oc1cc(C)nc(C(C)C)n1 [diazinon]
[4]
  Henry solubility constant Hcp: 0.15
reference: Muir et al. (2004)
  Henry solubility constant Hcp: 46 and 92

## CCOCCOC(C)=O [2-ethoxyethyl ethanoate]
reference: Brockbank (2013)
  Henry solubility constant Hcp: 3

## CCCCC(C=O)CC (stereo not given) [2-ethylhexanal]
reference: Brockbank (2013)
  Henry solubility constant Hcp: 0.012

## Brc1ccccc1 [bromobenzene]
reference: Brockbank (2013)
  Henry solubility constant Hcp: 0.0043
[7]
  Henry solubility constant Hcp: 0.005
reference: HSDB (2015)
  Henry solubility constant Hcp: 0.0047

## CCC(C)Br (stereo not given) [2-bromobutane]
reference: Brockbank (2013)
  Henry solubility constant Hcp: 0.00088
